The results in this text go back to ChEMBL document CHEMBL1126466, “Chemical synthesis of D-erythro-sphingosine-1-phosphate, and its inhibitory effect on cell motility” (1992).

SMILES strings stand for the structures. Several values for one entry are separate records, joined by “and”; a condition that tells them apart may be missing. Equal values may be shown once.

What all share (assay type): functional, B16/F1
A short description of assay [1]: The compound was tested for inhibitory effect on motility of mouse melanoma B16/Fl cells in an in vitro Matri gel-coated transwell assay system at 0.001 uM concentration.
The nature of assay [2]: The compound was tested for inhibitory effect on motility of mouse melanoma B16/Fl cells in an in vitro Matri gel-coated transwell assay system at 1 uM concentration.
Assay [3] in a line: The compound was tested for inhibitory effect on motility of mouse melanoma B16/Fl cells in an in vitro Matri gel-coated transwell assay system at 0.01 uM concentration expressed as percent migration.
Assay [4] is described as follows: The compound was tested for inhibitory effect on motility of mouse melanoma B16/Fl cells in an in vitro Matri gel-coated transwell assay system at 1 uM concentration expressed as percent migration.
A short description of assay [5]: The compound was tested for inhibitory effect on motility of mouse melanoma B16/Fl cells in an in vitro Matri gel-coated transwell assay system at 0.001 uM concentration expressed as percent migration.
Assay [6] is described as follows: The compound was tested for inhibitory effect on motility of mouse melanoma B16/Fl cells in an in vitro Matri gel-coated transwell assay system at 5 uM concentration expressed as percent migration.
A short description of assay [7]: The compound was tested for inhibitory effect on motility of mouse melanoma B16/Fl cells in an in vitro Matri gel-coated transwell assay system at 0.1 uM concentration expressed as percent migration.

For `CCCCCCCCCCCCC/C=C/[C@@H](O)[C@@H](N)COP(=O)(O)O`, the Migration is 82% in assay [1]; 10% in assay [2]; 12% and 17% in assay [3]; 8% in assay [4]; 122% in assay [5]; 34% and 41% in assay [6]. In addition, the Migration in assay [7] is 6% and 12%.

Take `CCCCCCCCCCCCC/C=C/[C@@H](O)[C@@H](N)CO` [SPHINGOSINE]: the results for the Migration in assay [4], in assay [6] and in assay [7] were 78%, 12% and 90%, respectively.
